According to ChEMBL document CHEMBL1137533, “Activity of 7-methyljuglone derivatives against Mycobacterium tuberculosis and as subversive substrates for mycothiol disulfide reductase” (Bioorg Med Chem, 2007):
Values after ≈ are worked out from the molar mass of the structure shown. Active and inactive are the calls of the source. The calls are words filed in the database; no cut-off is given here.

Columns and labels:
[1] = system: Mycobacterium tuberculosis; experiment: Antimycobacterial activity against Mycobacterium tuberculosis H37Rv at MIC; type: functional
Vero = experiment: Cytotoxicity against Vero cells after 48 hrs by XTT method; type: cell-based; settings: Chlorocebus sabaeus
[2] = system: Mycobacterium tuberculosis; experiment: Antimycobacterial activity against Mycobacterium tuberculosis H37Rv; type: functional
[3] = system: Mycobacterium tuberculosis; experiment: Ratio of kcat to Km of Mycobacterium tuberculosis mycothiol reductase; set-up: unit not given here
[4] = system: Mycobacterium tuberculosis; experiment: Activity of Mycobacterium tuberculosis mycothiol reductase
[5] = Selectivity index, ratio of IC50 for Vero cells to MIC of Mycobacterial tuberculosis H37Rv; type: functional
[6] = system: Mycobacterium tuberculosis; experiment: Activity of Mycobacterium tuberculosis mycothiol reductase upto 800 uM

Row | SMILES | Activity [1] | IC50 (Vero) | MIC [2] | kcat/Km [3] | Km [4] | kcat [4] | Ratio [5] | Activity [6]
1 | CC(=O)Oc1cc(OC(C)=O)c2c(OC(C)=O)cc(C)c(Cl)c2c1OC(C)=O | 99.9% | 27.8 µg/mL (≈ 68 µM) | > 20 µg/mL |  |  |  |  | 
2 | Cc1cc(Cl)c2c(c1O)C(=O)C=CC2=O [8-CHLORO-5-HYDROXY-6-METHYLNAPHTHALENE-1,4-DIONE] | 99.9% | 4.6 µg/mL (≈ 20.7 µM) | 5 µg/mL (≈ 22.5 µM) | 1.64e+08 | 36 µM | 0.592 s⁻¹ | 0.92 | 
3 | Cc1cc(O)c2c(c1)C(=O)C=CC2=O [RAMENTACEONE] |  | 15.1 µg/mL (≈ 80.2 µM) | 0.5 µg/mL (≈ 2.66 µM) | 9.31e+07 | 254 µM | 2.37 s⁻¹ | 30.22 | 
4 | Cc1cc(O)c2c(c1)C(=O)C(O)=CC2=O | 99.9% | 3.1 µg/mL (≈ 15.2 µM) | 5 µg/mL (≈ 24.5 µM) |  |  |  | 0.63 | 
5 | Cc1cc(O)c2c(c1)[C@H](O)CCC2=O [SHINANOLONE] | 99.9% |  | > 100 µg/mL |  |  |  |  | inactive
6 | CC(=O)Oc1cc(OC(C)=O)c2c(OC(C)=O)c(C)cc(Cl)c2c1OC(C)=O | 99.9% | 149 µg/mL (≈ 365 µM) | > 20 µg/mL |  |  |  |  | 
7 | CC(=O)Oc1cc(OC(C)=O)c2c(OC(C)=O)cc(C)cc2c1OC(C)=O | 99.9% | 17.2 µg/mL (≈ 45.9 µM) | > 20 µg/mL |  |  |  |  | 
8 | CC(=O)Oc1cc(C)cc2c1C(=O)C=CC2=O | 99.9% | 6 µg/mL (≈ 26.1 µM) | 2.5 µg/mL (≈ 10.9 µM) | 8.15e+07 | 389 µM | 3.17 s⁻¹ | 2.4 | 
9 | CCOc1c(C)cc(Cl)c2c1C(=O)C=CC2=O | 99.9% | 12.5 µg/mL (≈ 49.9 µM) | 15 µg/mL (≈ 59.8 µM) |  |  |  | 0.83 | 
10 | CC(=O)Oc1c(C)cc(Cl)c2c1C(=O)C=CC2=O | 99.9% | 21.1 µg/mL (≈ 79.7 µM) | 10 µg/mL (≈ 37.8 µM) |  |  |  | 2.1 | 
11 | Cc1cc(O)c2c(c1)C(=O)C(c1c(C)cc3c(c1O)C(=O)C=CC3=O)=CC2=O [DIOSPYRIN] |  | 17.8 µg/mL (≈ 47.5 µM) | 8 µg/mL (≈ 21.4 µM) | 3.57e+07 | 33 µM | 0.118 s⁻¹ | 2.2 | 
12 | CCOc1cc(C)cc2c1C(=O)C=CC2=O | 99.9% | 6.3 µg/mL (≈ 29.1 µM) | 15 µg/mL (≈ 69.4 µM) |  |  |  | 0.42 | 
13 | Cc1cc(O)c2c(c1F)C(=O)C=CC2=O [5-FLUORO-8-HYDROXY-6-METHYLNAPHTHALENE-1,4-DIONE] |  | 7.6 µg/mL (≈ 36.9 µM) | 10 µg/mL (≈ 48.5 µM) |  |  |  | 0.76 | 
14 | O=C1C=CC(=O)c2ccccc21 [NAPHTHOQUINONE] | 99.9% | 1.2 µg/mL (≈ 7.59 µM) | 1 µg/mL (≈ 6.32 µM) | 3.36e+07 | 324 µM | 1.09 s⁻¹ | 1.19 | 
15 | CCOc1cc(C)c(Cl)c2c1C(=O)C=CC2=O | 99.9% | 36.1 µg/mL (≈ 144 µM) | > 20 µg/mL |  |  |  |  | 
16 | CC[C@@H](CO)NCCN[C@@H](CC)CO [ETHAMBUTOL] | 99.9% | > 150 µg/mL | 2 µg/mL (≈ 9.79 µM) |  |  |  | >75 | 
17 | Cc1ccc2c(c1O)C(=O)C=CC2=O |  | 3.1 µg/mL (≈ 16.5 µM) | 5 µg/mL (≈ 26.6 µM) |  |  |  | 0.63 | 
18 | Cc1cc(O)c2c(c1Br)C(=O)C=CC2=O [5-BROMO-8-HYDROXY-6-METHYLNAPHTHALENE-1,4-DIONE] |  | 3.6 µg/mL (≈ 13.5 µM) | 5 µg/mL (≈ 18.7 µM) |  |  |  | 0.71 | 
19 | Cc1cc(O)c2c(c1Cl)C(=O)C=CC2=O [5-CHLORO-8-HYDROXY-6-METHYLNAPHTHALENE-1,4-DIONE] |  | 2.5 µg/mL (≈ 11.2 µM) | 10 µg/mL (≈ 44.9 µM) | 9.1e+06 | 233 µM | 0.212 s⁻¹ | 0.25 | 
20 | NNC(=O)c1ccncc1 [ISONIAZID] | 99.9% | > 200 µg/mL | 0.2 µg/mL (≈ 1.46 µM) |  |  |  | >1000 | 
21 | COc1cc(C)cc2c1C(=O)C=CC2=O | 99.9% | 5.8 µg/mL (≈ 28.7 µM) | 15 µg/mL (≈ 74.2 µM) |  |  |  | 0.39 | 
22 | CN[C@@H]1[C@H](O[C@H]2[C@H](O[C@H]3[C@H](O)[C@@H](O)[C@H](N=C(N)N)[C@@H](O)[C@@H]3N=C(N)N)O[C@@H](C)[C@]2(O)C=O)O[C@@H](CO)[C@H](O)[C@H]1O [STREPTOMYCIN] | 99.9% | > 120 µg/mL | 1 µg/mL (≈ 1.72 µM) |  |  |  | >120 | 
23 | COc1cc(C)c(Cl)c2c1C(=O)C=CC2=O | 99.9% | 7.7 µg/mL (≈ 32.5 µM) | > 20 µg/mL | 3.3e+06 | 435 µM | 0.142 s⁻¹ |  | 
24 | CC1=CC(=O)c2ccccc2C1=O [MENADIONE] | 99.9% | 6.5 µg/mL (≈ 37.8 µM) | 5 µg/mL (≈ 29 µM) | 1.52e+07 | 483 µM | 0.732 s⁻¹ | 1.3 | 
25 | CC(=O)Oc1cc(C)c(Cl)c2c1C(=O)C=CC2=O | 99.9% | 6.3 µg/mL (≈ 23.8 µM) | 10 µg/mL (≈ 37.8 µM) |  |  |  | 0.63 | 
26 | Cc1cc(O)c2c(c1)C(=O)C=C(c1c(C)cc(O)c3c1C(=O)C=CC3=O)C2=O [NEODIOSPYRIN] |  | 32 µg/mL (≈ 85.5 µM) | 10 µg/mL (≈ 26.7 µM) | 4.88e+07 | 63 µM | 0.308 s⁻¹ | 3.2 | 
27 | COc1c(C)cc(Cl)c2c1C(=O)C=CC2=O | 99.9% | 8 µg/mL (≈ 33.8 µM) | 15 µg/mL (≈ 63.4 µM) |  |  |  | 0.54 | 
